Read-outs that look alike come from different tables or passages of the source.

For assay [1], the system named is CT26 tumors. Put plainly: Growth inhibition of s.c. footpad CT26 tumors in CB6F1 mice by daily i.p. adenine nucleotides (Table 1). The class given is in vivo, mouse. The settings on record: for inhibition at 25000 µM: Mus musculus, CT26, 360 h, 1 ml of 25 mM, based on tumor weights. The protocol:
The tumor cell lines employed were CT26, a mouse undifferentiated, aggressive colon carcinoma, and CAPAN-1, a well-differentiated human pancreatic adenocarcinoma. […] The cells are shown to be free of Mycoplasma contamination. Cells are cultured at 37° C. in a humidified atmosphere of 5% CO2 /95% air in MEM supplemented with antibiotics (100 units of penicillin per ml and 100 μg streptomycin per ml), L-glutamine (2 mM), non-essential amino acids (0.1 mM), sodium pyruvate (1 mM), and 10% fetal bovine serum.
In the tests, females and males CB6F1 mice (a standard F1 hybrid of BALB/C and C57BL/6) obtained from Jackson Laboratories, Bar Harbor, Maine and athymic outbred NCr nu/nu mice (males and females) from the Department of Radiation Medicine, Massachusetts General Hospital, Boston, Mass. 02114 are used. All the mice are kept for at least two weeks before inoculation of the tumors and the start of treatment and are 7-9 weeks old (CB6F1) or 6-7 weeks old (athymic nu/nu) at the start of the procedure. Animals weigh 20-25 g (females) or 23-28 g (males), are housed 5-12 per cage, and have ad libitum access to food and water.
Tumor cells are removed from subconfluent cultures by a mild trypsin-EDTA treatment, the cell pellet is washed once with MEM without serum and the cells are suspended at the desired cell numbers in PBS (phosphate-bufferedsaline, 8 g NaCl, 0.2 g KCl, 1.15 g Na2 HPO4.7H2 O, and 0.2 g KH2 PO4 per liter). Cell suspensions are shown to be at least 90% viable by trypan blue exclusion. Mice are injected subcutaneously in the right hind footpad with tumor cells suspended in 50 μl of PBS. The regular protocol (unless otherwise stated) consists of daily i.p. injections of 1 ml of 0.85% NaCl solution or 1 ml of 50 mM of AMP, ADP, or ATP in 0.85% NaCl (from stock solutions adjusted to pH 6.2) starting one day after tumor inoculation and given for ten consecutive days.
Injections are administered with 30 gauge needles and the mice are lightly anesthetized with ether. The mice are weighed before the start of treatment and once a week during and after treatment. After the tumors become palpable, tumor sizes are determined every three days. The animals are sacrificed, tumors are excised and weighed before they reach 10% of the animals' weight.
The growth inhibitory properties of adenine nucleotides against CT26 murine colon carcinoma, which are inoculated s.c. in the hind footpad of CB6F1 mice, are illustrated in Table 1 hereinbelow. […] No significant differences between males and females are observed either in the rate of tumor growth or in the tumor's response to adenine nucleotides treatment.

Assay [2] has as its system CT26 colon adenocarcinoma. Put plainly: Growth inhibition of footpad CT26 colon adenocarcinoma in CB6F1 mice, second series (FIGS. 2 and 3). In kind it is in vivo, mouse. The settings on record: for Anticancer activities against established footpad CT26 colon adenocarcinoma: CB6F1 mice, in words; for Inhibition of growth of palpable CT26 tumors (in words): daily i.p. in 2.2 ml saline, pH 6.2, 12 days, starting after tumors palpable, equimolar amounts. The protocol:
A further series of tests are conducted whereby tumors are inoculated by injections of 2.5×10^5 CT26 cells (over 90% viability) in 50 μl of phosphate-buffered saline into the right hind footpad of CB6F1 mice. The treatments were initiated at a variety of times after inoculation of the tumors. The injection schedules started either 1 or 5 days after tumor inoculation when none of the tumors are palpable or when the tumors are clearly palpable (average calculated weight of 100 mg), which occur in 100% of the inoculated mice after 8-11 days. Mice are randomized, divided into groups, and injected daily with 2.2 ml of saline, adenosine, AMP, or ATP (compounds are in sterile saline solutions at concentrations of 25 mM with AMP and ATP solutions adjusted to pH 6.2). Injections are administered intraperitoneally with 30 gauge needles and the mice are lightly anesthetized with […]. The mice are weighed and tumor sizes measured before the start of the treatment schedule and every three days during and after the treatment schedule. These determinations are performed before injections during the treatment period.
In particular, see FIG. 2. FIG. 2 illustrates inhibition of tumor growth (---) and host weight loss (-) in tumor-bearing mice by treatment with adenine nucleotides. Mice (CB6F1, 8 week old males) bearing palpable CT26 footpad tumors (on day 9 after tumor inoculation) are treated with saline (.smallcircle.), adenosine (o), AMP (Δ), or ATP (.quadrature.) as described herein. An untreated group is also included (x). Arrows indicate days of injection.
The magnitude of the antitumor activities of AMP and ATP depends to a small extent on the pH of the solution administered intraperitoneally. This property is probably related to the number of negative charges on the phosphate groups (the pKa of the secondary phosphate is around 6.6). AMP and especially ATP have some buffering capacity, and at a pH below 6.6 they carry a smaller net charge than at a physiological pH. The lower charge of these molecules enhances the initial (first hour) transport of AMP and ATP across the peritoneal membrane and into the systemic circulation (see Torres, et al., 1978, Pharmacol., 17, 330-340). […] The treatment schedule of palpable CT26 tumors which is illustrated in FIG. 2 consistently yields 10-20% of "cures". These mice remain tumor-free for at least two months.
FIG. 3 further illustrates inhibition of host weight loss in tumor-bearing animals by treatment with adenine nucleotides. Mice (CB6F1, males, 7 weeks old, in A, 10 weeks old in B, […]) with saline (.smallcircle.), adenosine (o), AMP (Δ), or ATP (.quadrature.) are initiated 1 day (A), 5 days (B), or 9 days after tumor inoculation (when all the tumors were palpable) (C). Arrows indicate days of injection. Experimental procedures were outlined in the text.

[3] abbreviates: experiment 6, 10 F per group, 0.5 × 10^5 cells, day 18, 1 ml of 50 mM i.p. daily (Ap4A 10 mM).
Where [4] appears, read: experiment 1, 10 F per group, 0.5 × 10^6 cells, day 15, 1 ml of 25 mM i.p. daily.
The mark [5] stands for this setting: experiment 2, 10 M per group, 0.5 × 10^6 cells, day 15, 1 ml of 25 mM i.p. daily.

In the case of `Nc1ncnc2c1ncn2[C@@H]1O[C@H](COP(=O)(O)OP(=O)(O)OP(=O)(O)OP(=O)(O)OC[C@H]2O[C@@H](n3cnc4c(N)ncnc43)[C@H](O)[C@@H]2O)[C@@H](O)[C@H]1O` [AP4 A, reference compound], in assay [1] (setting [3]), the Tumor diameter is reported as 0.9 ± 0.3 cm and the Tumor weight amounted to 0.74 ± 0.21 g.

The term inhibition denotes the drop in the measured response relative to a control, in per cent. With `Nc1ncnc2c1ncn2[C@@H]1O[C@H](COP(=O)(O)OP(=O)(O)OP(=O)(O)O)[C@@H](O)[C@H]1O` [ATP-MgCl2], the inhibition at 25000 µM in assay [1] (read-out: Inhibition of tumor growth (% of saline-treated), experiment 1, 10 F per group, 0.5 × 10^6 cells, day 15) worked out at 18%; in assay [1] (read-out: Inhibition of tumor growth (% of saline-treated), experiment 2, 10 M per group, 0.5 × 10^6 cells, day 15), 26%. The Tumor diameter was 1.4 ± 0.2 cm in assay [1] (setting [4]) and 1.4 ± 0.3 cm in assay [1] (setting [5]). For the same compound, the Tumor weight in assay [1] (setting [4]) is 1.59 ± 0.24 g; in assay [1] (setting [5]), 1.38 ± 0.40 g.

Consider `O=P(O)(O)O` [inorganic phosphate, reference compound], for which, in assay [2], the “Anticancer activities against established footpad CT26 colon adenocarcinoma” value was “without such effects” and the “Inhibition of growth of palpable CT26 tumors (in words)” value is given as “without any effects on the growth of CT26 tumors”.

On to `O=P(O)(O)OP(=O)(O)O` [inorganic pyrophosphate, reference compound], for which, in assay [2], the “Anticancer activities against established footpad CT26 colon adenocarcinoma” value is recorded as “without such effects” and the “Inhibition of growth of palpable CT26 tumors (in words)” value is “without any effects on the growth of CT26 tumors”.

Values taken from US5049372A, “Anticancer activities in a host by increasing blood and plasma adenosine 5'-triphosphate (ATP) levels” (priority 1988, dated 1991).
